US11648205B1, “Buccal formulation of avanafil with enhanced bioavailability and prolonged duration” (King Abdulaziz University, priority 2022, dated 2023)
≈ marks a conversion by molar mass, not a printed value.

Test: Solubility study of AVA-solid dispersions in distilled water
Type: physicochemical
Details: thermodynamic from solid, shaking water bath 48 h
Description: A solubility study for the prepared solid dispersions was conducted separately in distilled water, as described previously, with full details published (34). In screw-capped vials, 10 mL of distilled water was placed, and an excess amount of either the pure drug or the prepared solid dispersions was added. The vials were kept in a shaking water bath, for 48 h, in a thermostatically controlled shaking water bath (Model 1031; GFL Corporation, Burgwedel, Germany). Samples from the vial were obtained and were determined in triplicate using spectrophotometric assay at λmax 285 nm, and the data were expressed as the average ± the standard deviation. The AVA-solid dispersion with the highest water solubility was determined and selected for further investigations. Powder X-ray Diffraction (PXRD)

- solubility at 48 h: 3 µg/mL (≈ 6.2 µM)
SMILES: COc1ccc(CN=c2[nH]c(N3CCC[C@H]3CO)ncc2C(=O)NCc2ncccn2)cc1Cl [AVA, Avanafil]
